Experimental data taken from patent publication US11352368B2, “Salt of fused ring pyrimidine compound, crystal form thereof and preparation method therefor and use thereof” (GUANGZHOU MAXINOVEL PHARMACEUTICALS CO., LTD., priority 2018, dated 2022).

Tests used:
[1] = Solubility test of the salts in pure water (Example 6); format: physicochemical; details: room temperature, balancing about 20 hours, HPLC
Procedure: 2.0 mg of sample was precisely weighed into a liquid phase vial, 1.0 mL of purified water was added, the vial was subjected to ultrasonic treatment for about 30 seconds to disperse the samples evenly, then the vial was placed on a Labquaker rotator, and slowly rotated at room temperature for balancing. After balancing for about 20 hours, each vial was removed, and the solution was filtered with 0.45 μm nylon filter membrane. The filtrate was diluted by DMSO or not diluted and then detected by HPLC. At the same time, two parts of fused ring pyrimidine compounds were weighed and dissolved in DMSO to make standard solutions with concentration of 250 μg/mL and 500 μg/mL, respectively. The standard solutions were subjected to the HPLC detection. The sample concentration vs the peak area of HPLC principal component was used for make a standard curve, and the solubility of each sample in pure water was calculated by a external standard method.

[2] = Solubility test of crystal form A and crystal form B in a medium (Example 12); format: physicochemical; details: for Solubility (calculated by free base of the fused ring pyrimidine compound): in mg/mL (unit assumed)
From the text: Example 12 Solubility Test of the Crystal Form A of the Fumarate of Fused Ring Pyrimidine Compound as Shown in Formula 2 and the Crystal Form B of the Adipate of Fused Ring Pyrimidine Compound as Shown in Formula 3 in a Medium

[3] = Stability test (total impurities, 20 days); format: physicochemical
Procedure: The crystal form A of the fumarate of fused ring pyrimidine compound as shown in formula 2, the crystal form B of the adipate of fused ring pyrimidine compound as shown in formula 3 and the fused ring pyrimidine compound as shown in formula 1 were subjected to tests at a high temperature of 60° C., 25° C./60% RH, 40° C./75% RH and highlight irradiation (4500 lx±500 lx), the test time was 20 days, the sample bottles were placed under different test conditions, and samples were taken at 0 and 20 days to detect the total amount of impurities, and the test results were shown in Table 8 below.

[4] = Pharmacokinetic experiment, single intragastric dose in rats; format: in vivo, SD rats; details: single dose 10 mg/kg, 0.5% MC and 0.5% Tween80 in water
Procedure: 1) Preparation of animals 9 healthy male SD rats, each with a body weight of 220-230 g, were taken, fed with standard formulated granulated feed for rats at fixed times every day, and fasted for 12 hours before the experiment, and feeding was resumed after 4 hours of administration. Rats were free to drink water before, after and during the experiment. 9 rats were randomly divided into 3 groups.
2) Formulation of drugs: The fused ring pyrimidine compound as shown in formula 1, the crystal form A of the fumarate of fused ring pyrimidine compound as shown in formula 2 and the crystal form B of the adipate of fused ring pyrimidine compound as shown in formula 3 were accurately weighed, and were formulated into a 1 mg/mL solution in water (Wahaha/111830) with 0.5% MC (Fluka/BCBK3534K) and 0.5% Tween80 (TCl/V4FSC), respectively.
3) Intragastric administration with single dose (10 mg/kg): in the first group, rats were intragastrically administered with a solution of the fused ring pyrimidine compound as shown in formula 1, in the second group, rats were intragastrically administered with a solution of the crystal form A of the fumarate of fused ring pyrimidine compound as shown in formula 2, and in the third group, rats were intragastrically administered with a solution of the crystal form B of the adipate of fused ring pyrimidine compound as shown in formula 3.
4) Collection of blood samples: About 150 μL of blood was taken from the fundus venous plexus before administration and 0.083, 0.25, 0.5, 1, 2, 4, 8 and 24 hours after administration from each rat in the three groups, and anticoagulated with K2EDTA, plasma was separated by centrifugation and the supernatant was collected for LC-MS analysis.

JAK = details: cited from earlier work
FGFR = details: cited from earlier work
FLT3 = molecular target: T1, FLT3 (Homo sapiens, UniProt P36888); details: cited from earlier work
T1 sequence (P36888 27-993): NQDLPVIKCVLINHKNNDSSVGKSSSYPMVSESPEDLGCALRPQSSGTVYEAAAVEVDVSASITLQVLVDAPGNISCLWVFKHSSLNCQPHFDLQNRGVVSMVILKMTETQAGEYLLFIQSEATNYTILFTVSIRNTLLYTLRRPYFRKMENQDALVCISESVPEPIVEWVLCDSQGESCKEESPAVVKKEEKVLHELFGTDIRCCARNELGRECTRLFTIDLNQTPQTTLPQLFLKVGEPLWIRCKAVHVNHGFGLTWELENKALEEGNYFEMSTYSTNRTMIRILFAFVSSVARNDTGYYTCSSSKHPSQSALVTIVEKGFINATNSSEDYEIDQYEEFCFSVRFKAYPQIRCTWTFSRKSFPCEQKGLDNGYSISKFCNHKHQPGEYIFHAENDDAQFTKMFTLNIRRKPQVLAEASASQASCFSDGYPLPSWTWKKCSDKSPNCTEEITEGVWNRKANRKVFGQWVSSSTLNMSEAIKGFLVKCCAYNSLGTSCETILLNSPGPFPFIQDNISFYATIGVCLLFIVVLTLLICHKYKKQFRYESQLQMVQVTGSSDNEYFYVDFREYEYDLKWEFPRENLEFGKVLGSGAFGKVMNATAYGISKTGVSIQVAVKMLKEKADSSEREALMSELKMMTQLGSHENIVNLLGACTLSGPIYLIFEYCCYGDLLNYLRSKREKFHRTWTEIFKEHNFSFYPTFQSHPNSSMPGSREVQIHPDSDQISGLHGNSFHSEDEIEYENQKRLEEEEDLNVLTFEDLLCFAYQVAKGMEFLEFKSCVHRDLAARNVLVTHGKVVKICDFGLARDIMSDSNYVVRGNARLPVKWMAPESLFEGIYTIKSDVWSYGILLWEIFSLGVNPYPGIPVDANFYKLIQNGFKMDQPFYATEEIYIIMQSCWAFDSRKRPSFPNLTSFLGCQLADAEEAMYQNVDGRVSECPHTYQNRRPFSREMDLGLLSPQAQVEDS

Src kinase = details: cited from earlier work
[5] = medium intestinal fluid in simulated fed state (FeSSIF)
[6] = medium pH 4 (50 mM phosphate buffer)
[7] = medium pH 6 (50 mM phosphate buffer)

Q: What does the source list for `COc1cc(F)ccc1-c1c(C)sc2cnc(Nc3cnn(C4CCNCC4)c3)nc12` [The fused ring pyrimidine compound as shown in formula 1] [N-[7-(4-fluoro-2-methoxyphenyl)-6-methylthieno[3,2-d]pyrimidin-2-yl]-1-(piperidin-4-yl)-1H-pyrazol-4-amine]?
A: saturated solubility [1]: <1 µg/mL; pH value of sample solution for solubility ([2]; medium Purified water): 8.29; Solubility (calculated by free base of the fused ring pyrimidine compound) ([2]; medium Purified water): <0.001; pH value of sample solution for solubility [2, 5]: 5.27; Solubility (calculated by free base of the fused ring pyrimidine compound) [2, 5]: 1.469; pH value of sample solution for solubility [2, 6]: 5.67; Solubility (calculated by free base of the fused ring pyrimidine compound) [2, 6]: 0.054; pH value of sample solution for solubility [2, 7]: 6.29; Solubility (calculated by free base of the fused ring pyrimidine compound) [2, 7]: 0.025; Impurity content ([3]; Day 0): 1.44%; Impurity content ([3]; Day 20, 25° C/60% RH): 1.46%; Impurity content ([3]; Day 20, 40° C/75% RH): 1.49%; Impurity content ([3]; Day 20, 60° C): 1.44%; Impurity content ([3]; Day 20, Light (4500 lx±500 lx)): 2.06%; chemical stability in the condition of high temperature and high humidity ([3]; high temperature and high humidity, 20 days): good chemical stability; Blood drug concentration (AUC) [4]: 57.7 ng·h/mL; inhibitory effect on JAK (JAK): good inhibitory effect; inhibitory effect on FGFR (FGFR): good inhibitory effect; inhibitory effect on FLT3 (FLT3): good inhibitory effect; inhibitory effect on Src kinase (Src kinase): good inhibitory effect
